Experimental data reported in ChEMBL document CHEMBL3865823, “Ameliorative effects of amide derivatives of 1,3,4-thiadiazoles on scopolamine induced cognitive dysfunction” (Eur J Med Chem, 2016).

Legend:
Mus musculus [1] = experiment: Antiamnesic activity against scopolamine-induced memory loss in albino mouse assessed as latency to reach shock free zone at 0.5 mg/kg, ip administered 5 mins post scopolamine-challenge and 35 mins prior to training by passive avoidance test (reference value: 53.25 +/- 1.37 sec); type: functional
Mus musculus [2] = experiment: Antiamnesic activity against scopolamine-induced memory loss in albino mouse assessed as basal latency to reach shock free zone at 0.5 mg/kg, ip administered 5 mins post scopolamine-challengen and 35 mins prior to training by passive avoidance test (reference value: 40.25 +/- 2.84 sec); type: functional
Mus musculus [3] = experiment: Antiamnesic activity against scopolamine-induced memory loss in albino mouse assessed as escape latency time at 0.5 mg/kg, ip administered 5 mins post scopolamine-challenge and 35 mins prior to training measured on day 5 by Morris water maze test (reference value: 84.92 +/- 1.64 sec); type: functional
Acetylcholinesterase [4] = target: T1, Acetylcholinesterase (Mus musculus, UniProt P21836); experiment: Competitive inhibition of albino mouse brain AChE using acetylthiocholine iodide as substrate measured up to 2 mins by Ellmans method
T1 sequence (P21836 whole entry): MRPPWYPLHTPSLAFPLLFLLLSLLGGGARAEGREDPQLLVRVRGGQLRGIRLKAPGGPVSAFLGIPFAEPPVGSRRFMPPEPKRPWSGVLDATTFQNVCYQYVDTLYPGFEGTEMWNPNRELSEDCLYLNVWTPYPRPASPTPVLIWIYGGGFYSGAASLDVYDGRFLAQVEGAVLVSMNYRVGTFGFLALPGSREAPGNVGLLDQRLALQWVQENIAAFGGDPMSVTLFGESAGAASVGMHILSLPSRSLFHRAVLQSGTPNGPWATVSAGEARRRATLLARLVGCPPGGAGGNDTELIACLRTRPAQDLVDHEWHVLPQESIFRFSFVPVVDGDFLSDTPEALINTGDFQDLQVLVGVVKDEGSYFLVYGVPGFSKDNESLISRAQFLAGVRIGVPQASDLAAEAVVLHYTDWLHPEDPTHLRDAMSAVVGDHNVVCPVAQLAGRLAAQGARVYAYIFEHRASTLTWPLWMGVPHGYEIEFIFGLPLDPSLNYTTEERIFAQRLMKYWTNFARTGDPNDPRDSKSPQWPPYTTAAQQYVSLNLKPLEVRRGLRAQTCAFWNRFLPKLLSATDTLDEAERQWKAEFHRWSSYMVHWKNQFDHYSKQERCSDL

Acetylcholinesterase [5] = target: T1, Acetylcholinesterase; experiment: Inhibition of albino mouse brain AChE using acetylthiocholine iodide as substrate measured for 2 mins by Ellmans method; type: tissue-based
Mus musculus [6] = experiment: Neuroprotective activity against scopolamine-induced oxidative damage in albino mouse assessed as catalase activity by measuring H2O2 decomposition per mg of protein at 0.5 mg/kg, ip administered 5 mins post scopolamine-challenge (reference value: 1.37 +/- 0.25 micromol/min); type: functional
Mus musculus [7] = experiment: Antiamnesic activity against scopolamine-induced memory loss in albino mouse assessed as time spent in target quadrant at 0.5 mg/kg, ip administered 5 mins post scopolamine-challenge and 35 mins prior to training measured on day 5 by Morris water maze test (reference value: 4 +/- 1.15 sec); type: functional
Mus musculus [8] = experiment: Neuroprotective activity against scopolamine-induced oxidative damage in albino mouse assessed as lipid peroxidation in brain by measuring MDA level per mg protein at 0.5 mg/kg, ip administered 5 mins post scopolamine-challenge by TBARS assay (reference value: 2.73 +/- 0.36 mol); type: functional
Mus musculus [9] = experiment: Antiamnesic activity against scopolamine-induced memory loss in albino mouse assessed as escape latency time at 0.5 mg/kg, ip administered 5 mins post scopolamine-challenge and 35 mins prior to training measured on day 2 by Morris water maze test (reference value: 89.41 +/- 0.39 sec); type: functional
Mus musculus [10] = experiment: Neuroprotective activity against scopolamine-induced oxidative damage in albino mouse assessed as glutathione reductase level in brain measured per mg of protein at 0.5 mg/kg, ip administered 5 mins post scopolamine-challenge by Ellamns assay (reference value: 0.008 +/- 0.001 umol); type: functional
Mus musculus [11] = experiment: Neuroprotective activity against scopolamine-induced oxidative damage in albino mouse assessed as superoxide dismutase level in brain at 0.5 mg/kg, ip administered 5 mins post scopolamine-challenge measured at every 30 to 60 secs interval for 2 mins by NBT reduction assay (reference value: 0.17 +/- 0.03 U/mg); type: functional
Mus musculus [12] = experiment: Antiamnesic activity against scopolamine-induced memory loss in albino mouse assessed as escape latency time at 0.5 mg/kg, ip administered 5 mins post scopolamine-challenge and 35 mins prior to training measured on day 3 by Morris water maze test (reference value: 88.33 +/- 0.95 sec); type: functional
Mus musculus [13] = experiment: Neuroprotective activity against scopolamine-induced oxidative damage in albino mouse assessed as nitrite level in plasma at 0.5 mg/kg, ip administered 5 mins post scopolamine-challenge by Greiss assay (reference value: 483.5 +/- 27.1 ug/ml); type: functional
Mus musculus [14] = experiment: Antiamnesic activity against scopolamine-induced memory loss in albino mouse assessed as escape latency time at 0.5 mg/kg, ip administered 5 mins post scopolamine-challenge and 35 mins prior to training measured on day 1 by Morris water maze test (reference value: 89.67 +/- 0.23 sec); type: functional
Mus musculus [15] = experiment: Antiamnesic activity against scopolamine-induced memory loss in albino mouse assessed as escape latency time at 0.5 mg/kg, ip administered 5 mins post scopolamine-challenge and 35 mins prior to training measured on day 4 by Morris water maze test (reference value: 87.17 +/- 1.03 sec); type: functional
Mus musculus [16] = experiment: Inhibition of scopolamine-induced increase in AchE level in albino mouse assessed as AChE level in brain at 0.5 mg/kg, ip administered 5 mins post scopolamine-challenge using acetlythiocholine iodidie as substrate by Ellman's method (reference value: 0.011 +/- 0.0022 umol/min/mg); type: functional
Mus musculus [17] = experiment: Antiamnesic activity against scopolamine-induced memory loss in albino mouse assessed as number of mistakes at 0.5 mg/kg, ip administered 5 mins post scopolamine-challenge and 35 mins prior to training by passive avoidance test (reference value: 12.25 +/- 0.47); type: functional
Acetylcholinesterase [18] = target: T1, Acetylcholinesterase; experiment: Uncompetitive inhibition of albino mouse brain AChE using acetylthiocholine iodide as substrate measured up to 2 mins by Ellmans method

Structure (SMILES)	Time (Mus musculus [1]) [s]	Time (Mus musculus [2]) [s]	Time (Mus musculus [3]) [s]	Ki (Acetylcholinesterase [4]) [µM]	IC50 (Acetylcholinesterase [5]) [µM]	Activity (Mus musculus [6]) [µmol/min]	Time (Mus musculus [7]) [s]	Activity (Mus musculus [8]) [nmol]	Time (Mus musculus [9]) [s]	Activity (Mus musculus [10]) [µmol]	Activity (Mus musculus [11]) [U/mg]	Time (Mus musculus [12]) [s]	Activity (Mus musculus [13]) [µg/mL]	Time (Mus musculus [14]) [s]	Time (Mus musculus [15]) [s]	Activity (Mus musculus [16]) [µmol/min/mg]	Activity (Mus musculus [17])	Ki (Acetylcholinesterase [18]) [µM]
O=C(Nc1nnc(-c2ccccc2Cl)s1)c1cc(C(F)(F)F)cc(C(F)(F)F)c1	4.5	30.75	21.67	0.97	2.74	2.79	25.33	0.73	84.25	0.016	5.87	73.75	291.8	89.75	52.92	0.002	3	–
O=C(Nc1nnc(-c2ccccc2)s1)c1cccc(CCl)c1	–	–	–	–	4.09	2.67	–	0.67	–	0.012	5.95	–	268.5	–	–	0.004	–	0.85
Cc1ccc(-c2nnc(NC(=O)c3cc(C(F)(F)F)cc(C(F)(F)F)c3)s2)cc1	–	–	–	–	7.09	2.69	–	1.09	–	0.012	5.23	–	306.5	–	–	0.003	–	3.77
CC(=O)Oc1cccc(C(=O)Nc2nnc(-c3ccccc3Cl)s2)c1	4.5	36.33	23.92	–	3.03	2.66	23.33	0.76	77.83	0.013	5.29	62.33	265.5	88.42	46.83	0.004	4.25	0.64
O=C(Nc1nnc(-c2ccccc2Cl)s1)c1cccc(CCl)c1	5.25	34.58	22.5	–	3	1.9	24.33	0.76	76.08	0.01	5.95	62.92	308.8	85.92	44.75	0.003	4.5	0.66
CC(CC(=O)Nc1nnc(Cc2ccccc2)s1)CC(C)(C)C (stereo unspecified)	–	–	–	–	27.1	–	–	–	–	–	–	–	–	–	–	–	–	3.99
Cc1ccc(-c2nnc(NC(=O)c3cccc(CCl)c3)s2)cc1	–	–	–	3.84	12.6	–	–	–	–	–	–	–	–	–	–	–	–	–
O=C(Nc1nnc(Cc2ccccc2)s1)c1cccc(CCl)c1	–	–	–	–	20.3	1.74	–	0.98	–	0.01	5.26	–	324.8	–	–	0.003	–	5.06
CC(CC(=O)Nc1nnc(-c2cccc(Cl)c2)s1)CC(C)(C)C (stereo unspecified)	–	–	–	–	13.7	–	–	–	–	–	–	–	–	–	–	–	–	2.67
CC(=O)Oc1cccc(C(=O)Nc2nnc(-c3ccccc3)s2)c1	–	–	–	0.91	3.78	–	–	–	–	–	–	–	–	–	–	–	–	–
CC(=O)Oc1cccc(C(=O)Nc2nnc(Cc3ccccc3)s2)c1	–	–	–	–	11.6	–	–	–	–	–	–	–	–	–	–	–	–	5.67
Cc1ccc(-c2nnc(NC(=O)CC(C)CC(C)(C)C)s2)cc1 (stereo unspecified)	–	–	–	–	23.7	–	–	–	–	–	–	–	–	–	–	–	–	8.36
CC(=O)Oc1cccc(C(=O)Nc2nnc(-c3ccc(C)cc3)s2)c1	–	–	–	–	10.8	–	–	–	–	–	–	–	–	–	–	–	–	3.77
CC(CC(=O)Nc1nnc(-c2ccccc2)s1)CC(C)(C)C (stereo unspecified)	–	–	–	–	23.7	–	–	–	–	–	–	–	–	–	–	–	–	7.6
CCN(C)C(=O)Oc1cccc([C@H](C)N(C)C)c1 [RIVASTIGMINE]	12.25	37.08	34.08	–	–	1.88	15	2.34	83.83	0.014	4.24	72.92	418.2	89.75	54.58	0.005	8.75	–
